Laboratory results as given in patent US7629135B2, “Toll-like receptor agonists and antagonists and methods of use thereof” (The Board of Trustees of the University of Illinois, priority 2006, dated 2009).

Legend:
TLR2:Fc fusion protein = molecular target: T1, TLR2:Fc fusion protein (Homo sapiens, UniProt O60603); experiment: SAA-TLR2 interaction, ELISA-like binding assay; settings: 0.0625 to 8 μg/ml ligand coated, 2 μg/ml TLR2:Fc
T1 construct: measured in an ELISA-like assay using a TLR2 extracellular domain:Fc fragment fusion protein; made in house; host or cells: CHO cells (pFuse-Fc vector, InvivoGen), purified from culture supernatant on protein A
T1 sequence (O60603 21-588 limits assumed): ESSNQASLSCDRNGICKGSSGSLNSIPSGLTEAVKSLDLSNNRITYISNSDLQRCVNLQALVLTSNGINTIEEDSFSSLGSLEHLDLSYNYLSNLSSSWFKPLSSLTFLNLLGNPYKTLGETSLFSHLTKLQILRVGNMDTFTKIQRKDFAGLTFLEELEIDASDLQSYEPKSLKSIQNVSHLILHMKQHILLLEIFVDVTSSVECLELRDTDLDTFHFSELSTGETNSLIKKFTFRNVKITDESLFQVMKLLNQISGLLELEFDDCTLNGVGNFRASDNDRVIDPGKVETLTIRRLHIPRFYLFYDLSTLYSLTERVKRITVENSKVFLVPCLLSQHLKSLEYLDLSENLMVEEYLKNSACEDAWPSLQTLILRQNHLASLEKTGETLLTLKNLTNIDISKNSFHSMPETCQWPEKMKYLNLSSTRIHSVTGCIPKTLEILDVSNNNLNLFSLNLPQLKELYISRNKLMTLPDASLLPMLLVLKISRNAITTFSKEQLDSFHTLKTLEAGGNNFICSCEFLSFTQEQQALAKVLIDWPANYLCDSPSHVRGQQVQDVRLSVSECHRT
Source text: Another example of a method for screening antagonists that disrupt the SAA/TLR2 interaction involves a binding assay that includes a TLR2 ectodomain (extracellular domain) fused to an Fc fragment of immunoglobulin (TLR2:Fc), such as the assay used in FIG. 9B. This assay is typically used as a follow-up or secondary assay to that assay described above. In other words, any compounds collected from the assay described above are subjected to the TLR2:Fc-based binding assay to confirm that the antagonistic effect is on the disruption of SAA-TLR2 binding. This method is generally carried out as follows and is also described in the Examples. A TLR2:Fc fusion protein is generated such that the N-terminal 588 amino acids of human TLR2 are fused in frame to the Fc portion of mouse IgG2a. The cDNA encoding for the resulting chimeric protein is cloned in pFuse-Fc vector (InvivoGen), and stably transfected into CHO cells. […] Absorbance at 450 nm is measured on a SpectraMax 340 plate reader (Molecular Devices).
Assays for SAA-TLR2 interaction: The TL2:Fc fusion protein was generated such that the N-terminal 588 amino acids of human TLR2 protein were fused in frame with the Fc portion of mouse IgG2a. […] Absorbance at 450 nm was measured on a SpectraMax 340 plate reader (Molecular Devices). […]

TLR2-HeLa cells = experiment: MAP kinase phosphorylation and IκBα degradation in TLR2-HeLa cells (Western blotting); format: cell-based, human; settings: mock-transfected HeLa cells, 10 min; SAA 1 μM, Pam3CSK4 1 μg/ml
Procedure: FIG. 8 is a series of protein gels and corresponding Western blotting graphs showing that SAA-induced TLR2-dependent signaling in transfected cells. Serum-starved TLR2-HeLa and mock-transfected HeLa cells were stimulated with SAA (1 μM) or Pam3CSK4 (1 μg/ml) for the indicated time. The phosphorylation level of ERK1/2 (A), p38 (B) and JNK (C) was detected by Western blotting using antibodies recognizing the phosphorylated forms of the MAP kinases (blots). (D) The level of cytoplasmic IκB ? was detected by Western blotting using an anti-IκB ? antibody and the β-actin levels in the corresponding samples were shown as loading controls. […] A representative set of data, from 3 repeating experiments, is presented.

In the case of Pam3CSK4 [reference compound], the “binding to TLR2:Fc fusion protein” value (TLR2:Fc fusion protein) is reported as “directly bind to the ectodomain” and the “ERK1/2 phosphorylation in mock-transfected cells” value (TLR2-HeLa cells) is reported as “not”.
